# Assay results as given in US11299501B2 (BRISTOL-MYERS SQUIBB COMPANY, priority 2017, dated 2022).
# Legend:
# Format in all cases: cell-based
# human TLR7 = target: T1, human TLR7 (Homo sapiens, UniProt Q9NYK1); experiment: TLR7 inhibition reporter assay (HEK-Blue SEAP); conditions: cells overexpressing human TLR7, SEAP reporter, stimulated with gardiquimod 7.5 μM, 22 hour incubation
# T1 construct: host or cells: HEK-Blue cells
# T1 sequence (Q9NYK1 27-1049): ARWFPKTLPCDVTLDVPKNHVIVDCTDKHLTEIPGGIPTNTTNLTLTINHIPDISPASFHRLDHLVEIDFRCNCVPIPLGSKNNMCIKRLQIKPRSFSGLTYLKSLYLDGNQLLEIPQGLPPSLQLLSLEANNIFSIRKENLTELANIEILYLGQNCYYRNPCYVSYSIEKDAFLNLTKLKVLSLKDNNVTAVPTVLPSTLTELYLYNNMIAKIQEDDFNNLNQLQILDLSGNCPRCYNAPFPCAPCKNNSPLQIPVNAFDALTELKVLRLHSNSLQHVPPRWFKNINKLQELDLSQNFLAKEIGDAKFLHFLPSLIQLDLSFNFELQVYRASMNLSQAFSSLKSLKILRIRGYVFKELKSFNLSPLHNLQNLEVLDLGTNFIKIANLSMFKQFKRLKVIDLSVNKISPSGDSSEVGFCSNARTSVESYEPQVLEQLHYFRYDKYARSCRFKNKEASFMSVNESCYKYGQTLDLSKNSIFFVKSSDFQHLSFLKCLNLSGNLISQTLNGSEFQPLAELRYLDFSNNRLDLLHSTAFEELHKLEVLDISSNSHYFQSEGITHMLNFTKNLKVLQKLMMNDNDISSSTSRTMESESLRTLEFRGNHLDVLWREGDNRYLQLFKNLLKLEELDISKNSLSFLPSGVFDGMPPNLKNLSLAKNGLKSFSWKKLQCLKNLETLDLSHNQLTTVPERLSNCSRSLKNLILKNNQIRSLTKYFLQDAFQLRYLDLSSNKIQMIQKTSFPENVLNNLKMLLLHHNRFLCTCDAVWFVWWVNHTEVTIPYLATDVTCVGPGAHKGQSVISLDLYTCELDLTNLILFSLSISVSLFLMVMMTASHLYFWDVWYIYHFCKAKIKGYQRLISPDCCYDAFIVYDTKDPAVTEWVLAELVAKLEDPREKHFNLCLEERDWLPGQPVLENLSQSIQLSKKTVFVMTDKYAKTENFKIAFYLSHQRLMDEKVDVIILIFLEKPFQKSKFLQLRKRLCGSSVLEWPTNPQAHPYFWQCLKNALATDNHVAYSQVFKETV
# How it was run: (§1)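 HEK-Blue cells expressing human TLR7, TLR8 or TLR9 with NF-κB/AP-1-driven SEAP reporter pre-treated 30 min at room temperature with compound (0.05 nM–50 μM), then stimulated with gardiquimod 7.5 μM (TLR7), R848 15.9 μM (TLR8) or ODN2006 5 nM (TLR9). SEAP read after 22 h at 37 °C; % inhibition relative to agonist+DMSO and reference-inhibitor wells.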
# human TLR9 = target: T2, human TLR9 (Homo sapiens, UniProt Q9NR96); experiment: TLR9 inhibition reporter assay (HEK-Blue SEAP); conditions: cells overexpressing human TLR9, SEAP reporter, stimulated with ODN2006 5 nM, 22 hour incubation
# T2 construct: host or cells: HEK-Blue cells
# T2 sequence (Q9NR96 26-1032): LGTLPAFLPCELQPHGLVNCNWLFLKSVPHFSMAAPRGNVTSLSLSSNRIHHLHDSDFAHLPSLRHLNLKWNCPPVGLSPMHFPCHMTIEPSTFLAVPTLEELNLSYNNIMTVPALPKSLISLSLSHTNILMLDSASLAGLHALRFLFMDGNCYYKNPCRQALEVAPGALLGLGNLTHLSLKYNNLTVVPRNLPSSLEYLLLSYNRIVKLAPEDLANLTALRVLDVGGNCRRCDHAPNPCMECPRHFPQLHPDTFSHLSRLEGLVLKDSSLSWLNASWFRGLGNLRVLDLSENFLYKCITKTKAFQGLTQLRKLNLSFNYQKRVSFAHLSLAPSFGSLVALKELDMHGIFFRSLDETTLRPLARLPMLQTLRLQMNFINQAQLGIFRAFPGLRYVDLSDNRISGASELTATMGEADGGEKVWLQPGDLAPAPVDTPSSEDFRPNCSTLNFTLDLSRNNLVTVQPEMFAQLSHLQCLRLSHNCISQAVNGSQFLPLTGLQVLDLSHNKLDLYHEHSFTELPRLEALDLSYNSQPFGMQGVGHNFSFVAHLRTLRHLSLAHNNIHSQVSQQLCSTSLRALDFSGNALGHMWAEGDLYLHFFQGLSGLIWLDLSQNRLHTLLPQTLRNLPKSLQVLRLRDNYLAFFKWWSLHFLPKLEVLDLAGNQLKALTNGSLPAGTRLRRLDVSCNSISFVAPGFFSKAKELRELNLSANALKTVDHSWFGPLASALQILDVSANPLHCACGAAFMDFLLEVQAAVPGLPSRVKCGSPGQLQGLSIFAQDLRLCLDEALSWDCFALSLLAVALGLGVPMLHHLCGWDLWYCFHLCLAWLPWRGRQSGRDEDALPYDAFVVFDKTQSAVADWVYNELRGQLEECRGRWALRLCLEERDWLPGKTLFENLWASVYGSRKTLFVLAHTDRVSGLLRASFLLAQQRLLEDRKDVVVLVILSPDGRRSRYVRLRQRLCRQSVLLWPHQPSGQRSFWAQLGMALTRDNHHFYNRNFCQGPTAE
# How it was run: as §1
# human TLR8 = target: T3, human TLR8 (Homo sapiens, UniProt Q9NR97); experiment: TLR8 inhibition reporter assay (HEK-Blue SEAP); conditions: cells overexpressing human TLR8, SEAP reporter, stimulated with R848 15.9 μM, 22 hour incubation
# T3 construct: host or cells: HEK-Blue cells
# T3 sequence (Q9NR97 27-1041): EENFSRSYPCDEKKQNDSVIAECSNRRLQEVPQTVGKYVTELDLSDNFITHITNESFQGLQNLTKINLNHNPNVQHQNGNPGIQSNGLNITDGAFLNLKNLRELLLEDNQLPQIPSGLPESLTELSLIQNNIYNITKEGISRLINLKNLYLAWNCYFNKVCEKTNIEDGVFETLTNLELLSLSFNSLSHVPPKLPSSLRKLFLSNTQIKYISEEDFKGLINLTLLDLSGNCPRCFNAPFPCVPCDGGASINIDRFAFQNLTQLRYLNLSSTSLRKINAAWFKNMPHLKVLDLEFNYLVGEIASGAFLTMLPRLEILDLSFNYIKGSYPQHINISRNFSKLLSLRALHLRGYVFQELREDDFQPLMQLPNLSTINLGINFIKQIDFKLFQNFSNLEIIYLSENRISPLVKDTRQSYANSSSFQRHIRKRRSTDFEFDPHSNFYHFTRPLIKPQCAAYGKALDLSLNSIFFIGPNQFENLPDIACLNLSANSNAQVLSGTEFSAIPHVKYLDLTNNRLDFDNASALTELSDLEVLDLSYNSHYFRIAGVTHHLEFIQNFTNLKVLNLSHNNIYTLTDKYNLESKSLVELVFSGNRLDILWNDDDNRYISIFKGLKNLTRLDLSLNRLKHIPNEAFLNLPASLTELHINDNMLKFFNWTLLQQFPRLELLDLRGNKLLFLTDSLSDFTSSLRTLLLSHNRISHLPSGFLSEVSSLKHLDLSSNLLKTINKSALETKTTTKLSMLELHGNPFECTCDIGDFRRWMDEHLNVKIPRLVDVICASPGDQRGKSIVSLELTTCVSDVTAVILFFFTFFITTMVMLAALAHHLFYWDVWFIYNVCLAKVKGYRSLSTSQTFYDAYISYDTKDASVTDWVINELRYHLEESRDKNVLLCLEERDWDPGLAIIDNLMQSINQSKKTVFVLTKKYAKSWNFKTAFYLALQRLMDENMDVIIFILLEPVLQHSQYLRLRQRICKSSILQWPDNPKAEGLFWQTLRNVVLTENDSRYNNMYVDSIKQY
# How it was run: as §1
IC50 (human TLR7) [nM],IC50 (human TLR9) [nM],IC50 (human TLR8) [nM],SMILES
< 100,1000 to 50000,< 100,"CNC(=O)CN1CCC(c2ncc3[nH]c(-c4cn5ncnc5c(C)c4C)c(C(C)C)c3n2)CC1 [Example 9, 2-(4-(6-(7,8-dimethyl-[1,2,4]triazolo[1,5-a]pyridin-6-yl)-7-isopropyl-5H-pyrrolo[3,2-d]pyrimidin-2-yl)piperidin-1-yl)-N-methylacetamide]"
100 to 1000,1000 to 50000,100 to 1000,"CCc1c(-c2ccc(OC)c(OC)c2)[nH]c2cnc(C3CCN(Cc4c[nH]cn4)CC3)nc12 [Example 51, 2-(1-((1H-imidazol-4-yl)methyl)piperidin-4-yl)-6-(3,4-dimethoxyphenyl)-7-ethyl-5H-pyrrolo[3,2-d]pyrimidine]"
100 to 1000,1000 to 50000,< 100,"CCc1c(-c2ccc(OC)c(OC)c2)[nH]c2cnc(C3CCN(Cc4nc(C)c[nH]4)CC3)nc12 [Example 52, 6-(3,4-dimethoxyphenyl)-7-ethyl-2-(1-((4-methy 1H-imidazol-2-yl)methyl)piperidin-4-yl)-5H-pyrrolo[3,2-d]pyrimidine]"
100 to 1000,100 to 1000,100 to 1000,"CCc1c(-c2ccc(OC)c(OC)c2)[nH]c2nnc(C3CCN(C4CCN(C(C)C)CC4)CC3)cc12 [Example 2, 6-(3,4-dimethoxyphenyl)-5-ethyl-3-(1′-isopropyl-[1,4′-bipiperidin]-4-yl)-7H-pyrrolo[2,3-c]pyridazine]"
